Measured values from publication PMC11724923 (Nature Communications, 2025).
One block for each molecule: values may come before it.

Legend:
PRDX1 [1] = target: T1, PRDX1 (Homo sapiens, UniProt Q06830); test: SPR with sodium palmitate; type: binding
T1 sequence (Q06830 1-199): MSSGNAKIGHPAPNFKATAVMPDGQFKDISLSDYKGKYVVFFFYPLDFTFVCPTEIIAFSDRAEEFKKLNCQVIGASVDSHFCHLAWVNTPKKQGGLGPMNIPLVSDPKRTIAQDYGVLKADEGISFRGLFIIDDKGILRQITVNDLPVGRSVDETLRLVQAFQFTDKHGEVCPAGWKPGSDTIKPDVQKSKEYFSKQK

PRDX1 [2] = target: T1, PRDX1; test: SPR; type: binding
crystal structure = target: the molecule itself; test: crystal structure

Kd (PRDX1 [1]): 75.3 ± 4.5 µM
Molecule: CCCCCCCCCCCCCCCC(=O)O [PA, palmitic acid]

Kd (PRDX1 [2]): 0.3757 ± 0.0025 µM
Molecule: O=C(/C=C/c1ccc(O)c(O)c1)O[C@H](Cc1ccc(O)c(O)c1)C(=O)O [RA, rosmarinic acid]

B1: PRDX1^C52SC83S (aa 1-175) (enzyme, human, UniProt Q06830 1-175, looked up)
chain: MSSGNAKIGHPAPNFKATAVMPDGQFKDISLSDYKGKYVVFFFYPLDFTFVSPTEIIAFSDRAEEFKKLNCQVIGASVDSHFSHLAWVNTPKKQGGLGPMNIPLVSDPKRTIAQDYGVLKADEGISFRGLFIIDDKGILRQITVNDLPVGRSVDETLRLVQAFQFTDKHGEVCPA
binding result (crystal structure): binds
